One experiment concerns DU-145 (prostate cancer). As to the kind of experiment: MTS cytotoxicity assay, 72 h, DU-145. Format: cell-based, human. Conditions: Homo sapiens, DU-145, 72 h, Table 1. The gist of the method: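 Absorbance at 490 nm after 1–4 h with MTS/phenazine methosulfate gave viability, from which IC50 was calculated. Compounds were tested over 50–0.0975 μmol/L (2-fold series). DU145 was seeded at 15,000 cells/mL in RPMI 1640 with 10% FBS.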
Background: Formazan colour is commonly taken as a measure of viable cells.

The subject of another experiment is CEM-DNR. The experiment in a line: MTS cytotoxicity assay, 72 h, CEM-DNR. Format: cell-based. Conditions: Homo sapiens.
For experiment [1], the system named is Gli-mediated transcription (U-87 MG-Gli-FLuc reporter). As to the kind of experiment: U-87 MG-Gli-FLuc reporter assay. The format is cell-based, human. Conditions: 24 h, 12.5–0.78 μmol/L; compared with GANT-61 at equimolar concentration. The method, then:
A possible direct inhibition of the reporter (Fluc) and luminescence itself, which could lead to false positive results, was also ruled out in a cellular as well as a noncellular model (data not shown).
Figure 1 Effect of compounds 11a, 11b, and positive control GANT-61 on Gli1 activation and cell viability measured using the U-87 MG-Gli-FLuc reporter assay. Data are expressed as percentages of control (100%) and represent the mean of three independent experiments with the standard deviation. To distinguish specific inhibition of Gli activation from a nonspecific cellular response, an MTS assay was performed simultaneously under the same conditions in 96-well transparent plates. Statistical analysis of Gli1 activity was performed using one-sample Student’s t-test (mu = 100): *, p < 0.05; **, p < 0.01. The same analysis was used to assess cytotoxicity by MTS assay: #, p < 0.05; ##, p < 0.01.
The U-87 MG-Gli-FLuc reporter cell line was developed from the human glioblastoma line U-87 MG obtained from ATCC and cultured in EMEM medium supplemented with 10% FBS, 1 mmol/L sodium pyruvate, and a 1 mmol/L nonessential amino acid mixture. […] Panels were placed on a shaker to achieve complete cell lysis, and luminescence was measured after 3 min using an EnVision plate reader.
Background: Reporter assays use an easily measured gene product as a stand-in for the process of interest.

Structures are written as SMILES.

Turning to `C=C(C)[C@@H]1CC[C@]2(C(=O)O)CC[C@]3(C)C(CCC4[C@@]5(C)C=C(c6ccoc6)C(=O)C(C)(C)C5CC[C@]43C)C12` (some centres unmarked) [Compound 11b, 2-(Furan-3-yl)-3-oxolupa-1,20(29)-dien-28-oic acid], the concentration for half-maximal inhibition (IC50) in the experiment on DU-145 (prostate cancer) turned out to be 5.7 µM; with CEM-DNR (Table 1), 22 µM; with CEM-DNR (full Table S1) it was 21.8 µM. For the same molecule, in experiment [1], the Gli transcriptional activity entry is recorded as “inhibited Gli transcriptional activity in a dose-response manner”.
`C=C(C)[C@@H]1CC[C@]2(C(=O)O)CC[C@]3(C)C(CCC4[C@@]5(C)C=C(c6ccco6)C(=O)C(C)(C)C5CC[C@]43C)C12` (some centres unmarked) [Compound 11a, 2-(Furan-2-yl)-3-oxolupa-1,20(29)-dien-28-oic acid]: the results for the IC50 in the experiment with DU-145 (prostate cancer), in the experiment on CEM-DNR (Table 1) and in the experiment with CEM-DNR (full Table S1) were 7.9 µM, 15 µM and 15.3 µM, respectively. Besides, in experiment [1], the Gli transcriptional activity result is given as “inhibited Gli transcriptional activity in a dose-response manner”.

By IC50 is commonly meant the concentration that inhibits the measured activity by half. Lower therefore signals higher potency.
